Measurements from ChEMBL document CHEMBL5370617, “Identification of a 1,2,4-Oxadiazole with Potent and Specific Activity against Clostridioides difficile, the Causative Bacterium of C. difficile Infection, an Urgent Public Health Threat” (2023).
≈ marks a conversion by molar mass, not a printed value.

Experiments:
Format in all cases: functional
Conditions in all cases: time 24-48 hrs
Clostridioides difficile [1] = assay: Antibacterial activity against Clostridioides difficile ATCC 43255 assessed as bacterial growth inhibition measured at 24 to 48 hrs
Clostridioides difficile [2] = assay: Antibacterial activity against Clostridioides difficile assessed as bacterial growth inhibition measured at 24 to 48 hrs
Clostridioides difficile [3] = assay: Antibacterial activity against drug sensitive Clostridioides difficile assessed as bacterial growth inhibition measured at 24 to 48 hrs
Clostridioides difficile [4] = assay: Antibacterial activity against multi drug resistant Clostridioides difficile assessed as bacterial growth inhibition measured at 24 to 48 hrs

| Compound | MIC (Clostridioides difficile [1]) [µg/mL] | MIC (Clostridioides difficile [2]) [µg/mL] | further results |
| --- | --- | --- | --- |
| FC(F)(F)c1ccc(Oc2ccc(-c3noc(-c4ccc5[nH]ccc5c4)n3)cc2)cc1 | 4 (≈ 9.49 µM) | – | – |
| Oc1ccc(-c2nc(-c3ccc(OC4CCCC4)cc3)no2)cc1 | 2 (≈ 6.2 µM) | – | – |
| O=[N+]([O-])c1cn(CCO)c(-c2nc(-c3ccc(OC4CCCC4)cc3)no2)n1 | – | > 128 | – |
| O=[N+]([O-])c1c[nH]c(-c2nc(-c3ccc(OC4CCCC4)cc3)no2)n1 | 0.25 (≈ 0.732 µM) | – | MIC90 (Clostridioides difficile [3]): 1 µg/mL (≈ 2.93 µM); MIC90 (Clostridioides difficile [4]): 1 µg/mL (≈ 2.93 µM) |
| Cn1c(-c2nc(-c3ccc(OC4CCCC4)cc3)no2)cnc1[N+](=O)[O-] | – | 32 (≈ 90.1 µM) | – |
| Cc1ncc([N+](=O)[O-])n1CCO [METRONIDAZOLE] | – | 0.25 (≈ 1.46 µM) | – |
